# Measurements: patent publication US20240156083A1, “CRYOBIOPRINTING FOR TISSUE FABRICATION AND STORAGE” (THE BRIGHAM AND WOMEN'S HOSPITAL, INC., priority 2022, published 2024)
# Tests used:
# [1] = Splat ice recrystallization-inhibition assay; assay type: physicochemical; details: GelMA, Tp −20° C., 30 min, increasing DMSO concentration
# Description: To further confirm the effect of CPAs on inhibiting ice-recrystallization, a modified splat assay was employed. […] Smaller crystal size is an indication of enhanced ice recrystallization-inhibition (Tomczak MM, et al., Biochem. Biophys. Res. Commun 311, 1041-1046).
# The splat cooling assay was performed following the previously developed protocols (Georgiou PG, et al., J. Am. Chem. Soc 143, 7449-7461). Briefly, 10 μL of samples with different DMSO concentrations was added between two glass coverslips. The coverslips were placed on the freezing plate (Tp=−20° C.) for 30 min. Images were then obtained using an optical microscope (Nikon) and processed by ImageJ (National Institutes of Health) to determine the ice crystal size in each group.
# C2C12 cells [2] = test: Live/Dead viability in vertically cryobioprinted GelMA constructs; assay type: cell-based, mouse; details: 7.5% GelMA
# Description: The C2C12 myoblast-laden cryobioprinted samples containing DMSO and melezitose were subjected to Live/Dead assays on Days 1, 3, and 7. The 7.5% GelMA bioinks containing different concentrations (5%, 10%, and 15%) of DMSO were initially used to gain understanding on its cryoprotectant effect. The optimum concentration of DMSO was found at 10% for maximizing cell viability in the absence of the saccharide. GelMA bioinks containing different concentrations (4%, 8%, and 12%) of melezitose in the absence of DMSO were separately used for optimizing the melezitose effect. […] Therefore, the GelMA bioink combined with 8% melezitose and 10% DMSO was determined as the optimum formulation for cell-laden vertical cryobioprinting, and used in the following cellular experiments. […]
# Cell viability was assessed by staining with calcein-AM at 0.5 μL mL^−1 and ethidium homodimer-1 at 2 μL mL^−1 (Thermo Fisher Scientific). Cell viability imaging was done using an inverted Eclipse-Ti fluorescence microscope (Nikon). Cell viability was quantified by counting live and dead cells using the ImageJ software (National Institutes of Health). After loading the image, we would adjust the threshold to highlight all of the cells that need to be counted, and convert the image to a binary image. The number of live cells was then determined in the image. […]
# C2C12 cells [3] = test: Live/dead cell viability after 72 h cryopreservation in GelMA with DMSO and saccharides; assay type: cell-based, mouse; details: C2C12 in 5% (w/v) GelMA; for most effective saccharide concentration for cell viability increase: 72 h cryopreservation, normalized to control with same DMSO concentration
# Description: A series of cell viability experiments were conducted using different concentrations of DMSO and saccharides to find the optimized configuration of CPAs in GelMA. […] The cell-laden bioink was used to produce samples containing different concentrations of DMSO and saccharides at room temperature (RT). The cast samples were then directly transferred to −80° C. for 24 h, conventionally cryopreserved in liquid nitrogen for 72 h, crosslinked via UV exposure, and underwent live/dead assays. […] By using the fluorescence images, the cell viability ratios of C2C12 cells were determined. […] Cell viability of each group was normalized to the control group with the same DMSO concentration to choose the most functional saccharide and its optimum concentration (FIG. 3, B to D). […] Ninety-six groups of GelMA samples (four DMSO concentrations, four saccharide concentrations, and six types of saccharides) were studied to identify the optimal CPA configuration. C2C12 cells were encapsulated in the GelMA/CPAs precursor. A volume of 50 μL of the cell-laden precursor was directly cast on a freezing plate in aseptic conditions. […] On day 3, the samples were removed from cryogenic storage and directly crosslinked via UV exposure. The samples were washed in PBS to remove any excess CPAs in preparation for subsequent use. Cell viability was quantified within unthawed cell-encapsulated samples to identify the optimal combination of CPAs. Following the crosslinking and washing steps, the hydrogel samples were cultured for a definite period and then stained using calcein-AM and ethidium homodimer-1 (Thermo Fisher Scientific) per the provider's protocol. An inverted Eclipse-Ti fluorescence microscope (Nikon) was employed to image the live and dead cells in green and red channels, respectively. The ratio of live cells to the total captured cells in random regions of the samples was determined through processing the fluorescent images using ImageJ.
# [4] = Ice crystal-formation imaging, fractal dimension (FD) analysis; assay type: physicochemical; details: GelMA bioink, 90% of field of view frozen, versus DMSO-free control
# Description: One critical factor that affects cell viability during cryopreservation is the formation of ice crystals (Cheng Y, et al., Small 15, 1904290). The spicular ice crystals can damage the cell membrane, resulting in lower cell viability. […] The addition of CPAs noticeably affected the shape of ice crystals. In the control sample (without DMSO), the ice crystals were more spicular and formed faster than the other study groups. Increasing the DMSO concentration led to the formation of fine ice crystals; however, no remarkable improvement in ice-crystallization was observed when the saccharide concentration was increased, as the saccharide merely prevents osmotic damage to the cells. The fractal dimension (FD) theory, in conjunction with an image processing method, was employed to quantitatively compare the smoothness and the growth rate of the ice crystals. The FD value quantifies the geometry's irregularities. In our analysis, ice crystals' boundaries were extracted from the brightfield images and digitized. The FD value for the resulting quasi-circle geometry was then calculated using equation (1) (Chen Y, Math. Probl. Eng 2020, 7528703).
# , where P and A stand for the perimeter and the area of the quasi-circle geometry, respectively. FD is an indicator of how the quasi-circle geometry deviates from a circle. […] When 90% of the field of view was frozen, the FD values were recorded and compared. […]
# [5] = cited from earlier work
# [6] = previously reported (Tada N, et al.); cited from earlier work
compound,measurement,setting,value
"C[S+](C)[O-] [DMSO, Dimethylsulfoxide]",average size of the ice crystals,[1],significantly decreased
same,optimum concentration of DMSO for maximizing cell viability,C2C12 cells [2]; absence of the saccharide,10%
same,optimum concentration of DMSO,"C2C12 cells [3]; for the selected sugar types, versus DMSO-free group",10 % (v/v)
same,FD value of ice crystals,[4],significantly decreased
"OC[C@H]1O[C@@H](O[C@H]2[C@H](O)[C@@H](O)C(O)O[C@@H]2CO)[C@H](O)[C@@H](O)[C@H]1O (stereo partly drawn) [Lactose, D-lactose]",most effective saccharide concentration for cell viability increase,C2C12 cells [3],4 % (w/v)
"OC[C@H]1O[C@@](CO)(O[C@H]2O[C@H](CO)[C@@H](O)[C@H](O)[C@H]2O)[C@@H](O[C@H]2O[C@H](CO)[C@@H](O)[C@H](O)[C@H]2O)[C@@H]1O [Melezitose, D-(+)-melezitose hydrate]",Solubility at 20° C.,[5],781 mg/mL
same,melezitose concentration leading to highest cell viability,C2C12 cells [2]; absence of DMSO,8%
same,most effective saccharide concentration for cell viability increase,C2C12 cells [3],12 % (w/v)
"OC[C@H]1O[C@H](OC[C@H]2O[C@H](O[C@]3(CO)O[C@H](CO)[C@@H](O)[C@@H]3O)[C@H](O)[C@@H](O)[C@@H]2O)[C@H](O)[C@@H](O)[C@H]1O [Raffinose, D-(+) raffinose pentahydrate]",concentration effective as CPA,[6],10-18 % (w/v)
same,most effective saccharide concentration for cell viability increase,C2C12 cells [3],4 % (w/v)
